The record followed here is patent US9670242B2, “Tetracyclic anthraquinone derivatives” (Tianjin Hemay Bio-Tech Co., Ltd, priority 2012, dated 2017).

The nature of the data set: Solubility of the compound in water. Format: physicochemical.
For the compound `CC(=O)O.COc1cccc2c1C(=O)c1c(O)c3c(c(O)c1C2=O)CC(O)(C(=O)COC(=O)CCC(=O)NCCCN1CCOCC1)CC3O[C@H]1C[C@H](n2cccc2)[C@H](O)[C@H](C)O1` (stereo partly drawn) [Example 78, 10-((3′-(pyrrol-1-yl)-2′,3′,6′-trideoxy-alphal-l-lyxo-hexylpyranyl)oxy)-7,8,9,10-tetrahydro-6,8,11-trihydroxy-13-oxo-14-(4-((3-(morpholin-1-yl)propyl)amino)-4-oxo-butyrato)-1-methoxy-5,12-naphthalenedione acetate], the “solubility of the compound in water” value was “more than 22 mg/ml”.
Take `CC(=O)O.CCN1CCN(C(=O)CCC(=O)OCC(=O)C2(O)Cc3c(O)c4c(c(O)c3C(O[C@H]3C[C@H](n5cccc5)[C@H](O)[C@H](C)O3)C2)C(=O)c2c(OC)cccc2C4=O)CC1` (stereo partly drawn) [Example 80, 10-((3′-(pyrrol-1-yl)-2′,3′,6′-trideoxy-alphal-l-lyxo-hexylpyranyl)oxy)-7,8,9,10-tetrahydro-6,8,11-trihydroxy-13-oxo-14-(4-(4-ethylpiperazin-1-yl)-4-oxo-butyrato)-1-methoxy-5,12-naphthalenedione acetate]: the “solubility of the compound in water” value is “more than 11 mg/ml”.
Consider `CC(=O)O.COc1cccc2c1C(=O)c1c(O)c3c(c(O)c1C2=O)CC(O)(C(=O)COC(=O)CCC(=O)N1CCN(CCCN(C)C)CC1)CC3O[C@H]1C[C@H](n2cccc2)[C@H](O)[C@H](C)O1` (stereo partly drawn) [Example 87, 10-((3′-(pyrrol-1-yl)-2′,3′,6′-trideoxy-alphal-l-lyxo-hexylpyranyl)oxy)-7,8,9,10-tetrahydro-6,8,11-trihydroxy-13-oxo-14-(4-(4-(3-(dimethylamino)propyl)piperazin-1-yl)-4-oxo-butyrato)-1-methoxy-5,12-naphthalenedione acetate], for which the “solubility of the compound in water” value is reported as “more than 16 mg/ml”.
Regarding `CC(=O)O.COc1cccc2c1C(=O)c1c(O)c3c(c(O)c1C2=O)CC(O)(C(=O)COC(=O)CCC(=O)NN1CCN(C)CC1)CC3O[C@H]1C[C@H](n2cccc2)[C@H](O)[C@H](C)O1` (stereo partly shown) [Example 79], the “solubility of the compound in water” value is reported as “more than 5 mg/ml”.
As for `CC(=O)O.COc1cccc2c1C(=O)c1c(O)c3c(c(O)c1C2=O)CC(O)(C(=O)COC(=O)CCC(=O)NCCc1ccncc1)CC3O[C@H]1C[C@H](n2cccc2)[C@H](O)[C@H](C)O1` (stereo partly shown) [Example 86], the entry is “more than 3 mg/ml”; as for `CC(=O)O.COc1cccc2c1C(=O)c1c(O)c3c(c(O)c1C2=O)CC(O)(C(=O)COC(=O)CCC(=O)NCc1cccnc1)CC3O[C@H]1C[C@H](n2cccc2)[C@H](O)[C@H](C)O1` (stereo partly shown) [Example 83], “more than 1 mg/ml”; as for `CC(=O)O.COc1cccc2c1C(=O)c1c(O)c3c(c(O)c1C2=O)CC(O)(C(=O)COC(=O)CCC(=O)NCCc1ccccn1)CC3O[C@H]1C[C@H](n2cccc2)[C@H](O)[C@H](C)O1` (stereo partly shown) [Example 84], “more than 12 mg/ml”.
